Assay results as given in ChEMBL document CHEMBL5036304, “One Atom Makes All the Difference: Getting a Foot in the Door between SOS1 and KRAS” (J Med Chem, 2021).
Activity calls are given as the source filed them. No cut-off for these calls is given here.

How the values were obtained:
SOS1-KRAS [1] = target: T1, SOS1-KRAS (Homo sapiens, UniProt Q07889); experiment: Inhibition of SOS1/KRAS G12D mutant (unknown origin) protein-protein interaction using GDP nucleotide as substrate measured after 30 mins by Alphascreen assay
[2] = target: Epidermal growth factor receptor (Homo sapiens, UniProt P00533); experiment: Inhibition of EGFR (unknown origin)
[3] = Efflux ratio of apparent permeability from basolateral to apical side over apical to basolateral side in human Caco-2 cells at 10 uM
[4] = target: T2, Son of sevenless homolog 1 (Homo sapiens, UniProt Q07889); experiment: Binding affinity to SOS1 (unknown origin) assessed as dissociation constant by SPR analysis
T2 sequence (Q07889 whole entry): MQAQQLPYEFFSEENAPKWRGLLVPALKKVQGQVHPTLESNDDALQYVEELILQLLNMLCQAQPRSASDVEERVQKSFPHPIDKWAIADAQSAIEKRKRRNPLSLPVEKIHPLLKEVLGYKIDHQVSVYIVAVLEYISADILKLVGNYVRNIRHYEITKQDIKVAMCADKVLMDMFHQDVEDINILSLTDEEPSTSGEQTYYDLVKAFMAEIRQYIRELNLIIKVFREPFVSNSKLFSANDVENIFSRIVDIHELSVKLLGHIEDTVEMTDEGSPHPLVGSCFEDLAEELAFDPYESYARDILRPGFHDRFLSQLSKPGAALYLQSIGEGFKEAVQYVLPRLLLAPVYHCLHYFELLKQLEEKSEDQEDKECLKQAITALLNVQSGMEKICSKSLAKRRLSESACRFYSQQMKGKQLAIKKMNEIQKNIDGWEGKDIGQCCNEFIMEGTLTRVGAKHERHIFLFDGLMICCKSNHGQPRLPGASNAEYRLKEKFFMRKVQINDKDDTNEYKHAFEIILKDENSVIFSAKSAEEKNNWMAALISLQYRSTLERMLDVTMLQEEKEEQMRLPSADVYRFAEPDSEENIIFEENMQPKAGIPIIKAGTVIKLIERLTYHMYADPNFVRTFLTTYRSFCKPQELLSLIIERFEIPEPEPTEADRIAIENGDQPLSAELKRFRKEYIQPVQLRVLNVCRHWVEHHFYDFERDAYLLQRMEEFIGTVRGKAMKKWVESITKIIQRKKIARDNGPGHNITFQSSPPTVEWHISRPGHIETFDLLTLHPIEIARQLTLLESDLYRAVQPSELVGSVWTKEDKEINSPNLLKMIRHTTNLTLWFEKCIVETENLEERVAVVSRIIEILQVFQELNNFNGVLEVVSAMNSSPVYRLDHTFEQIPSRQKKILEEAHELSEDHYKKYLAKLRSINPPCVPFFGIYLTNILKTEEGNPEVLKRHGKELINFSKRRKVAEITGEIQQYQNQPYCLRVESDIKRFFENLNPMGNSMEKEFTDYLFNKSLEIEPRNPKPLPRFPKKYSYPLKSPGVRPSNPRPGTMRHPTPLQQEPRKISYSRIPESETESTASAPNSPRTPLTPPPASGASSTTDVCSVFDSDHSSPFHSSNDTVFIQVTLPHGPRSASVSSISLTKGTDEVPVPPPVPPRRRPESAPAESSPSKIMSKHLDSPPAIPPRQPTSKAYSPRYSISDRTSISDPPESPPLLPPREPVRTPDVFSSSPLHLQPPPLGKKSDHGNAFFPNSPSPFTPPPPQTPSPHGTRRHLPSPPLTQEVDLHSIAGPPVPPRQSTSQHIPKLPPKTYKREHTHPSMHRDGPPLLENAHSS

[5] = Anticancer activity against human DLD-1 cells xenografted rat model assessed as tumor growth inhibition at 50 mg/kg measured; assay type: functional; details: read-out: TGI
DLD-1 [6] = experiment: Induction of apoptosis in human DLD-1 cells harboring KRAS G13D mutant assessed as cleaved-PRAP at 100 nM measured after 24 to 48 hrs; assay type: functional, cell-based; details: time 24-48 hrs
[7] = Oral bioavailability in mouse; assay type: ADME, organism-based; details: in vivo
[8] = Oral bioavailability in rat; assay type: ADME, organism-based; details: in vivo
[9] = Metabolic stability in mouse hepatocytes in presence of 50% serum; assay type: ADME, cell-based, Hepatocyte
[10] = Metabolic stability in rat hepatocytes in presence of 50% serum; assay type: ADME, cell-based, Hepatocyte
[11] = Metabolic stability in human hepatocytes in presence of 50% serum; assay type: ADME, cell-based, Hepatocyte
DLD-1 [12] = experiment: Induction of apoptosis in human DLD-1 cells harboring KRAS G13D mutant assessed as cleaved-PRAP measured after 24 to 48 hrs; assay type: functional, cell-based; details: time 24-48 hrs
DLD-1 [13] = experiment: Induction of apoptosis in human DLD-1 cells harboring KRAS G13D mutant assessed as cleaved-PRAP at 0.1 nM measured after 24 to 48 hrs; assay type: functional, cell-based; details: time 24-48 hrs
SOS1-KRAS [14] = target: T1, SOS1-KRAS; experiment: Activation of SOS1/KRAS G12D mutant (unknown origin) protein-protein interaction using GDP nucleotide as substrate measured after 30 mins by Alphascreen assay

Chain of Epidermal growth factor receptor (P00533 whole entry): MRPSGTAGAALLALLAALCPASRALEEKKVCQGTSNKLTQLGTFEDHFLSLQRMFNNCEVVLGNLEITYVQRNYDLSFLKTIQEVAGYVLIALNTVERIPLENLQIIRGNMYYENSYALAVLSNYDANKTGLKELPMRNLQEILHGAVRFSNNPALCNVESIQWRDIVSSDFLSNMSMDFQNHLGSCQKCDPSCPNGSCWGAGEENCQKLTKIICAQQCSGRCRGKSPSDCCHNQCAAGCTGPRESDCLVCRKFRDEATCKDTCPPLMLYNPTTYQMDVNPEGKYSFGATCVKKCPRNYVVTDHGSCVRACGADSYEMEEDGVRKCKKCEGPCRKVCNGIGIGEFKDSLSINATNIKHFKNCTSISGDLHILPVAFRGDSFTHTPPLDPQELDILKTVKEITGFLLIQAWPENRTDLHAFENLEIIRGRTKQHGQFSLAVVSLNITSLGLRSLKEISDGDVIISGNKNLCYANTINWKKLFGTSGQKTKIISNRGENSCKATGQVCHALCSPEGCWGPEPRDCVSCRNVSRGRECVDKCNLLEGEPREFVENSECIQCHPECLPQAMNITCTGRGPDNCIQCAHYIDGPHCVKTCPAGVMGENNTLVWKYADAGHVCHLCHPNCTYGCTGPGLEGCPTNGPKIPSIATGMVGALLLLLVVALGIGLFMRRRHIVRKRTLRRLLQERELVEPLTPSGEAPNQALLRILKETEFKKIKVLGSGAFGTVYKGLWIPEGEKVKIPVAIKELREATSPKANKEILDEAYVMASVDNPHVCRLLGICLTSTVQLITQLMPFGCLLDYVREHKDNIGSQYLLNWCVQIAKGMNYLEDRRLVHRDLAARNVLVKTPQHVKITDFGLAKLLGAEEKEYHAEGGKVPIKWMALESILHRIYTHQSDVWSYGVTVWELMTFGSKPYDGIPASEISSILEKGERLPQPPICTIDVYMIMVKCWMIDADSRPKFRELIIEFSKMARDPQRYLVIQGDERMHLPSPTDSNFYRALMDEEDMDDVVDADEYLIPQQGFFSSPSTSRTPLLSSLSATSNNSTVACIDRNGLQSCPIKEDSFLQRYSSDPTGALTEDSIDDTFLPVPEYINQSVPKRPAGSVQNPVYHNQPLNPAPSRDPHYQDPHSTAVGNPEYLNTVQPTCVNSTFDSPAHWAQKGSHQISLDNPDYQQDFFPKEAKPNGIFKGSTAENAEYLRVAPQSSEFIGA

Structure (SMILES)	IC50 (SOS1-KRAS [1]) [nM]	efflux ratio at 10 µM [3]	Kd [4] [nM]	further results
COc1cc2nc(C)nc(N[C@H](C)c3cccc(S(N)(=O)=O)c3)c2cc1OC	56	50	16	IC50 [2]: > 20000 nM
CN(C)C/C=C/C(=O)Nc1cc2c(Nc3ccc(F)c(Cl)c3)ncnc2cc1O[C@H]1CCOC1 [AFATINIB]				inhibition in vivo at 50 mg/kg [5]: 7%; Activity (DLD-1 [6]): Active
COc1cc2nc(C)nc(N[C@H](C)c3cccc(C(F)(F)F)c3)c2cc1OC	106	0.3	104	IC50 [2]: > 20000 nM
COc1cc2nc(C)nc(N[C@H](C)c3cccc(N)c3)c2cc1OC	355	1.3	123	
COc1cc2ncnc(N[C@H](C)c3ccccc3)c2cc1OC	1050		301	IC50 [2]: 1 nM
CC(C)c1noc2ncc(C(=O)NC(C)c3cccc(S(N)(=O)=O)c3)cc12 (stereo unspecified)	1190		937	
COc1cc2nc(C)nc(N[C@H](C)c3ccccc3)c2cc1OC	453	0.6	469	IC50 [2]: 2800 nM
Cc1nc(N[C@H](C)c2cc(N)cc(C(F)(F)F)c2)c2cc(Cl)ccc2n1	3830		1490	
COc1cc2nc(C)nc(N[C@H](C)c3cc(N)cc(C(F)(F)F)c3)c2cc1O[C@H]1CCOC1				bioavailability [7]: 100%; bioavailability [8]: 100%; Stability [9]: 45%; inhibition in vivo at 50 mg/kg [5]: 37%; Stability [10]: 28%; Stability [11]: 14%; Activity (DLD-1 [12]): Active
CC(=O)Nc1cccc(-n2c(=O)n(C3CC3)c(=O)c3c(Nc4ccc(I)cc4F)n(C)c(=O)c(C)c32)c1				Activity (DLD-1 [13]): Active
N[C@@H](Cc1c[nH]c2ccccc12)C(=O)NC1CCN(Cc2c[nH]c3ccccc23)CC1			19300	EC50 (SOS1-KRAS [14]): 11100 nM
Cc1nc(N[C@H](C)c2cc(N)cc(C(F)(F)F)c2)c2cc(F)ccc2n1			751	EC50 (SOS1-KRAS [14]): 939 nM
COc1ccc2nc(C)nc(N[C@H](C)c3cc(N)cc(C(F)(F)F)c3)c2c1	33		24	
COc1cc2nc(C)nc(N[C@H](C)c3cc(N)cc(C(F)(F)F)c3)c2cc1OC	15	0.7	16	
